# Test results as given in patent publication US5032398A, “Selective modification of the catalytic subunit of pertussis toxin” (priority 1986, dated 1991).
# Where “and” joins values, the source holds several entries; their conditions need not be identical. Equal entries are not always repeated.
# Experiments:
# [1] = biological target: T1, pertussis toxin (Bordetella pertussis, UniProt P04977); assay: NADase activity in the presence of sulfhydryl reducing agents (Example Five); format: biochemical
# Procedure: (§1) In the description herein, activation constants for the substances may be expressed by a numerical value (A0.5) by using an NADase assay.
# (§2) The pertussis toxin in the Examples comprised 50 μg of the toxin in a 500 μl solution of 10 mM sodium phosphate-50 mM sodium chloride-water solution having a pH of 7. The enzymatic activity was detected as the hydrolysis of nicotinamide labelled NAD and ion-exchange column chromatography to resolve the product from the substrate. Unless otherwise noted, the assay was initiated by adding 0.5 to 2.5 μg of the toxin to a reaction mixture for a final volume of 100 μl. The NADase reaction was terminated by adding 0.85 ml of ice-cold water. The entire 0.95 ml was then pipetted into a QAE-Sephadex column (chloride form) and the labelled nicotinamide eluted with 3 ml of water directly into a scintillation vial and counted. […] One unit of NADase activity is defined as 1 pmol NAD hydrolyzed per hour.
# Pertussis toxin NADase activity was assayed in the presence of various sulfhydryl reducing agents at various concentrations. The assay buffer contained 1% CHAPS and 1 mM ATP.
# [2] = biological target: T1, pertussis toxin; assay: NADase activity of pertussis toxin after activation and treatment with alkylating reagent (Example One); format: biochemical
# Description: (§3) The ADP-ribosylating activity of the pertussis toxin can be detected as a nicotinamide-adenine dinucleotide-glycohydrolase (NADase) activity, which can be conveniently assayed through the use of [nicotinamide-^14 C] or [nicotinamide-^3 H] NAD. NAD consists of ADP-ribose linked to nicotinimide, and thus the extent of the release of ADP-ribose from NAD is an indication of the ability of the toxin to cause ill effects. In conducting this assay of the hydrolysis of labelled NAD, ion-exchange column chromatography was employed to resolve the product from the substrate according to the method described by Moss et al., J. Biol. Chem. 258, 11879 (1983) which is incorporated herein by reference. However, several modifications to this method were employed. First, a QAE-Sephadex resin was employed, as was a [nicotinamide-^3 H] NAD. Specifically, a 2 ml QAE-Sephadex column was first washed with 10 ml 1NHCl, followed by 10 ml H2 O, 20 ml 0.5M Tris-HCl pH 7.0, and 40 ml H2 O. [^3 H] NAD was applied, and the column washed with 20 ml water to elute impurities. Purified [^3 H] NAD was eluted with 0.25M NaCl, and stored in small aliquots at -70° C. The purified [^3 H] NAD contributed 50 mM NaCl (final concentration) to the NADase assays.
# (§4) Before the end of the reaction, 2 ml QAE-Sephadex columns were treated with 10 ml 0.1M imidazole-HCl pH 7.0 with 1.0M NaCl, followed by 40 ml water. The NADase reaction (in 100 μl) was terminated by adding 0.85 ml of ice-cold water, and the entire 0.95 ml was pipetted into a treated QAE column. The labelled nicotinamide was then eluted with 3 ml of water directly into a scintillation vial and counted. The absorbed labelled NAD was then eluted into radioactive waste with 10 ml 0.1M imidazole-HCl pH 7.0 with 1.0M NaCl, and the column stored partially immersed in a water bath until the next assay.
# In order to determine if any active toxin remained after the inactivation, a large excess of sulfhydryl reductant was added to each tube to scavenge unreacted sulfhydryl reagent. The NADase activity of the preparation was then measured. The three incubations were performed under a nitrogen atmosphere using degassed solutions to prevent oxidation of sulfhydryl groups which would prevent the sulfhydryl reagent from modifying the sulfhydryl group.
# as §2
# One-half microgram of pertussis toxin was incubated for thirty minutes at […] in 100 mM Tris-HCl (pH 8.0), with or without activators, in a volume of 50 μl. When present, ATP and pyrophosphate were present in a concentration of 2 mM, CHAPS at 2 weight percent, and DTT in a concentration of either 2 mM (trial 1) or 1 mM (trial 2). 10 μl of water with or without iodoacetate or N-ethylmaleimide was then added and a second incubation conducted at 30° C. for either thirty minutes (trial 1) or fifteen minutes (trial 2). After this incubation, 10 μl of 200 mM DTT was added to each tube, and the tubes were incubated for thirty (trial 1) or sixty minutes (trial 2) on ice to scavenge the iodoacetate or N-ethylmaleimide.
# [3] = biological target: T1, pertussis toxin; assay: Inactivation of NADase activity by sulfhydryl reagents, 6 minutes or 18 hours at 0-4° (Example Eight); format: biochemical
# Procedure: (§5) Pertussis toxin was incubated at 37° C. for fifteen minutes as described in Example Six, and then a second incubation was begun by adding 10 μl buffer A with or without 12.5 mM iodoacetate, mixing the contents of the tube and lowering the temperature to 30° C. After fifteen minutes, the tubes were shifted to an ice bath for ten minutes. A third incubation was then begun by adding 10 μl buffer A containing 200 mM DTT to those tubes containing iodoacetate to scavenge the iodoacetate. To those tubes not containing iodoacetate during the second incubation, a mixture of 200 mM DTT and 12.5 mM iodoacetate in buffer A, previously incubated for an hour on ice, was added. The third incubation was continued for one hour on ice.
# (§6) The contents of each tube were then assayed for NADase activity by adding 40 μl of a reaction mix consisting of buffer A containing carbon-14 labelled NAD (final concentration in the 100 μl final volume was 25 μM), and 50 mM sodium chloride. Different reaction mixtures with various additions were used, so that in all tubes the final concentration of ATP was 1 mM and CHAPS was 1 weight percent. The assay was conducted at 37° C. for sixty minutes, and the released labelled nicotinimide was isolated and counted. The iced controls were formed by incubating pertussis toxin (1 μg) on ice in 10 mM sodium phosphate (pH 7) and 50 mM sodium chloride during the first three incubations. […] The first three incubations were done under a nitrogen atmosphere using degassed conditions, and the second and third incubations were done under subdued light.
# The procedure followed in Example Seven was repeated for this study, except that N-ethylmaleimide, chloroacetamide or chloroacetate were substituted for iodoacetate. After the 30° C. incubation, the tubes were either incubated for six minutes or eighteen hours at 0°-4° C. before the 10 μl of 200 mM DTT (with or without quenched reagent) was added. Those tubes receiving the DTT after six minutes were incubated for nineteen hours at 0°-4° C. prior to the NADase assay. Those receiving the DTT after eighteen hours were incubated with DTT for one hour, as in Example Seven. The tubes were then assayed for NADase activity at the same time.
# [4] = biological target: T1, pertussis toxin; assay: Effect of detergents on the NADase activity of pertussis toxin (Example Four); format: biochemical; conditions: 1 mM ATP, 10 mM DTT; for Fractional Activity with CHAPS: detergent 1 weight percent plus CHAPS 1%; for Fractional Activity with CHAPS / Fractional Activity without CHAPS: relative to 1% CHAPS alone; for Fractional Activity without CHAPS: detergent 1 weight percent
# Procedure: as §2
# The effect of detergents on the NADase activity of pertussis toxin was measured in the presence of various detergents at a concentration of 1 weight percent in either the absence or presence of the detergent CHAPS (1 percent by weight). ATP was present in all assays in a concentration of 1 mM, and DTT concentration was 10 mM. Fractional activity is shown in Table III and is defined as activity divided by activity in the presence of 1% CHAPS. The value given is the average for two separate trials, and in each trial duplicates were measured for each condition.
# [5] = biological target: T1, pertussis toxin; assay: Screen of compounds at 1 mM for stimulation of the NADase activity of the toxin (Example Three); format: biochemical
# Description: as §3, §4, §2
# The various compounds were screened for the ability to stimulate the NADase activity of the toxin when present in a concentration of 1 mM. Before assay the toxin (1 μg per assay) was incubated at 37° C. for ten minutes with 20 mM DTT and 2 weight percent CHAPS. Assays were for three hours at 37° C., and fractional activation is defined as activity of the compound less the activity in the absence of an activator divided by the activity in the presence of 1 mM ATP less activity in the absence of the activator. The value given is the average plus one-half the range for two separate trials. In each trial, duplicates were measured. […] The results are shown in Table II, wherein P denotes phosphate.
# [6] = biological target: T1, pertussis toxin; assay: Inactivation of NADase activity by iodoacetate after different activator combinations (Example Seven); format: biochemical; conditions: additions to first incubation only (DTT 1 mM, ATP 1 mM, CHAPS 1%), second incubation none
# Procedure: (§7) Pertussis toxin was incubated first at 37° C. for fifteen minutes in […] buffer A (100 mM Tris-HCl, pH 8.0 with 1 mM NaEDTA). EDTA was added to chelate divalent cations, which may promote oxidation of free --SH groups. During this incubation, DTT and ATP were present in concentrations of 1 mM each, and CHAPS was present in a concentration of 1 weight percent. Labelled iodoacetate was then added ([…], 12.5 mM), and the tube incubated on ice for twenty hours. The sample was then mixed with sodium dodecylsulfate and β-mercaptoethanol, heated at 95° C. for one minute, and electrophoresed. After electrophoresis, the gel was fixed, treated with Fluorohance (Research Products International), dried and used to expose x-ray film.
# as §5, §6
# [7] = biological target: T1, pertussis toxin; assay: Activation constants (A0.5) of polyphosphates by NADase assay; format: biochemical; conditions: in the presence of a mild detergent
# Procedure: as §1, §2
# [8] = test system: S1 -S5 subunits of the toxin; assay: Labelled iodoacetate incorporation into toxin subunits, electrophoresis and x-ray film (Examples Two and Six); design: species or system Bordetella pertussis; conditions: CHAPS added, compared with DTT and ATP or DTT alone
# Procedure: Pertussis toxin (2.5 μg) was incubated for thirty minutes at 37° C. in 50 μl of 50 mM Tris-HCl (pH 8.0) with or without combinations of the activators ATP, CHAPS and DTT. During this incubation, ATP was 1 mM, CHAPS was 1 weight percent, and DTT was 0.5 mM, when present. Following this incubation, 75 nmol (1.34 microCi of iodo[^14 C]acetate and 25 μl of water were then added, and the tubes incubated for an additional thirty minutes under nitrogen gas at 30° C. in the dark. This labelling reaction was terminated by adding 1 ml of ice-cold water containing 7.5 mM non-radioactive iodoacetate, 2.5 μg bovine serum albumin, and 150 μg sodium deoxycholate. After ten minutes on ice, 100 μl 72% triochloroacetic acid was added, and the precipitate recovered by centrifugation. Sodium dodecylsulfate and beta-mercaptoethanol were added, the sample heated to 95° C. for one minute, and then electrophoresed using 15% polyacrylamide gels. The fixed gels were then treated, dried and used to expose x-ray film at -70° C.
# as §7
# [9] = first incubation: ATP, DTT, CHAPS, 6 minutes at 0-4°
# [10] = first incubation: ATP, DTT, CHAPS, 18 hours at 0-4°
# T1 sequence (P04977 35-269 limits assumed): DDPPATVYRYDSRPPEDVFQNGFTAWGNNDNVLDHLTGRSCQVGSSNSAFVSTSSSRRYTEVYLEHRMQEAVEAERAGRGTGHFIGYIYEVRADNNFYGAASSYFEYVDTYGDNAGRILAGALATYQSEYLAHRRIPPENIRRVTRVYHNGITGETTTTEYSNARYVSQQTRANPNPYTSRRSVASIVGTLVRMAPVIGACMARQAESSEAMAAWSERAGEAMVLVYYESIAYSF
# Chain of S1 -S5 subunits of the toxin (P04977 35-269 limits assumed): as above
# Chain of S1 -S5 subunits of the toxin (P04978 28-226 limits assumed, further chain): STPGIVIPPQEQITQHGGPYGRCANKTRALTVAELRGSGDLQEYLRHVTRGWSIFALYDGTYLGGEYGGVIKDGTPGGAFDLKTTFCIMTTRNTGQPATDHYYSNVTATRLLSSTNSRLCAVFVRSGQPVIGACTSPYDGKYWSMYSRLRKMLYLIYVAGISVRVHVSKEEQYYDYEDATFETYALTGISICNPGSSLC
# Chain of S1 -S5 subunits of the toxin (P04979 29-227 limits assumed, further chain): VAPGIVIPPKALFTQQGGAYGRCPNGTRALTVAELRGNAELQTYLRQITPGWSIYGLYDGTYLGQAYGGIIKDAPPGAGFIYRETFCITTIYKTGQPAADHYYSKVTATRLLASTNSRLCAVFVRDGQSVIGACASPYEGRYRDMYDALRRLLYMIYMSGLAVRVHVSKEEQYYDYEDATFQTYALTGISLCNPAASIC
# Chain of S1 -S5 subunits of the toxin (P0A3R5 43-152 limits assumed, further chain): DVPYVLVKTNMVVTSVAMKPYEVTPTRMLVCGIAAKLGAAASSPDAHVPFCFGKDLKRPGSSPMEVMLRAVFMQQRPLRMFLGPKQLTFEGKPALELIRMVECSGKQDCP
# Chain of S1 -S5 subunits of the toxin (P04981 35-133 limits assumed, further chain): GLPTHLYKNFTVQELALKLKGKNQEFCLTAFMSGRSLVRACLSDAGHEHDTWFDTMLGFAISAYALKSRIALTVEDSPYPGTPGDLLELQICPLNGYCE
molecule,measurement,setting,value
N[C@@H](CS)C(=O)O [cysteine],"Effectiveness as sulfhydryl reductant to prepare the toxin for deactivation, in words",[1],effective
same,activation constant,[1]; in the presence of ATP and CHAPS,the same constant
CCN1C(=O)C=CC1=O [N-ethylmaleimide],NADase activity (%) of the activity of toxin treated the same way without alkylating agent,"[2]; first incubation: DTT 1 mM, CHAPS 2%, ATP 2 mM, Experiment #2, second incubation 15 min at 30° C, 25 μM NAD",13%
same,NADase activity (%) of the activity of toxin treated the same way without alkylating agent,"[2]; first incubation: DTT 1 mM, CHAPS 2%, pyrophosphate 2 mM, Experiment #2, second incubation 15 min at 30° C, 25 μM NAD",46%
same,NADase activity (%) of the activity of toxin treated the same way without alkylating agent,"[2]; first incubation: DTT 2 mM, CHAPS 2%, ATP 2 mM, Experiment #1, second incubation 30 min at 30° C, 125 μM NAD",11%
same,NADase activity (%) of the activity of toxin treated the same way without alkylating agent,"[2]; first incubation: DTT 2 mM, CHAPS 2%, pyrophosphate 2 mM, Experiment #1, second incubation 30 min at 30° C, 125 μM NAD",60%
same,NADase activity (%) of the activity of toxin treated the same way without alkylating agent,"[2]; first incubation: none, Experiment #1, second incubation 30 min at 30° C, 125 μM NAD",90%
same,NADase activity (%) of the activity of toxin treated the same way without alkylating agent,"[2]; first incubation: none, Experiment #2, second incubation 15 min at 30° C, 25 μM NAD",106%
same,NADase activity,[3]; [9],16 pmol per μg per hour
same,percent of activity with no addition to second incubation,[3]; [9],15%
same,NADase activity,[3]; [10],10 pmol per μg per hour
same,percent of activity with no addition to second incubation,[3]; [10],10%
N[C@@H](CCC(=O)N[C@@H](CS)C(=O)NCC(=O)O)C(=O)O [glutathione],"Effectiveness as sulfhydryl reductant to prepare the toxin for deactivation, in words",[1],effective
same,EC50,"[1]; in the presence of ATP and CHAPS, read-out: activation constant",2000 µM
NP-40,Fractional Activity with CHAPS,[4],0.97
same,Fractional Activity without CHAPS,[4],0.54
Triton X-100,Fractional Activity with CHAPS,[4],1.05
same,Fractional Activity without CHAPS,[4],0.58
Nc1ncnc2c1ncn2[C@@H]1O[C@H](COP(=O)(O)OP(=O)(O)OP(=O)(O)O)[C@@H](O)[C@H]1O [ATP],"Stimulation (activation) of pertussis toxin, in words",[5],effective
same,NADase activity in the presence of 1 mM ATP,"[5]; two trials, without ATP 44 and 18",111 units per microgram toxin and 97 units per microgram toxin
same,remaining activity at 1000 µM,[6]; read-out: Percent NADase activity relative to iced control,13%
same,EC50,"[7]; FIGS. 1A and 1B, read-out: activation constants (A0.5)",0.2 µM
same,EC50,[7]; read-out: activation constant,~0.2 µM
"C[C@H](CCC(=O)NCCC[N+](C)(C)CCCS(=O)(=O)[O-])[C@H]1CC[C@H]2[C@@H]3[C@H](O)C[C@@H]4C[C@H](O)CC[C@]4(C)[C@H]3C[C@H](O)[C@]12C [CHAPS, 3-[(3-cholamidopropyl)-dimethylammonio]-1-propane sulfonate]",Percent NADase activity relative to iced control,[6],106
same,Peak indicating the alkylation of the S1 subunit,[8],increases
same,Peaks indicating alkylation of the S2 and S3 subunits,[8],substantially decreases
same,NADase activity in the presence of CHAPS alone,"[4]; 1% CHAPS, two trials",153 units per microgram and 158 units per microgram
same,NADase activity,"[3]; additions to first incubation only, second incubation none, 18 hours at 0-4°",186 pmol per μg per hour
